Assay results: ChEMBL document CHEMBL3588748, “Original 2-(3-Alkoxy-1H-pyrazol-1-yl)azines Inhibitors of Human Dihydroorotate Dehydrogenase (DHODH)” (J Med Chem, 2015)
Calls of active or inactive are those of the source. The rule behind the calls is not given here.

Assays:
Plasmodium falciparum = assay: Antiplasmodial activity against Plasmodium falciparum 3D7 assessed as inhibition of parasite growth at 8.66 ug/ml by SYBR Green I dye based assay; type: functional, organism-based

Description for Measles morbillivirus: Antiviral activity against measles virus rMV2/Luc infected in HEK-293T cells assessed as inhibition of virus growth incubated for 24 hrs by firefly luciferase reporter gene assay

Row | Compound | growth inhibition (GI) (Plasmodium falciparum) | pMIC50 (Measles morbillivirus)
1 | Cc1c(Oc2c(F)cccc2F)c(OC(C)C)nn1-c1cnc(C(C)(C)C)nc1 | inactive | 
2 | CCc1cnc(-n2nc(OC(C)C)c(Oc3c(F)cccc3F)c2C)c(F)c1 | inactive | 7.1
3 | Cc1c(Oc2cccc(F)c2)c(OC(C)C)nn1-c1ccc(C2CC2)cn1 | inactive | 6.8
4 | CCOc1nn(-c2ccc(C3CC3)cn2)c(C)c1Oc1cc(Cl)cc(Cl)c1 | inactive | 6.9
5 | Cc1c(Oc2cccc(F)c2)c(OC(C)C)nn1-c1ccc(C2CC2)nn1 | inactive | 6.4
6 | Cc1c(Oc2cc(F)ccc2F)c(OC(C)C)nn1-c1ccc(C2CC2)cn1 | inactive | 7.4
7 | CCOc1nn(-c2ncccc2F)c(C)c1Cc1ccccc1 | inactive | 5.2
8 | Cc1c(Oc2cc(F)ccc2F)c(OC(C)C)nn1-c1ccc(C2CC2)nn1 | inactive | 7
9 | Cc1c(Oc2c(F)cccc2F)c(OC(C)C)nn1-c1ccc(C(C)(C)O)cn1 | inactive | 6.7
10 | CCOc1nn(-c2ccc(C3CC3)cn2)c(C)c1Oc1ccccc1F | inactive | 7.7
11 | CC(=O)c1ccc(-n2nc(OC(C)C)c(Oc3c(F)cccc3F)c2C)nc1 | inactive | 6.6
12 | CCOc1nn(-c2ccc(C3CC3)nn2)c(C)c1Oc1cccc(C(F)(F)F)c1 | inactive | 6.4
13 | CCOc1nn(-c2ccc(Cl)cn2)c(C)c1Cc1ccccc1 | inactive | 5.5
14 | Cc1ccc(-n2nc(OC(C)C)c(Oc3c(F)cccc3F)c2C)nc1 | inactive | 7.6
15 | COc1ccc(-n2nc(OC(C)C)c(Oc3c(F)cccc3F)c2C)nc1 | inactive | 7.3
16 | CCOc1nn(-c2ccc(C3CC3)cn2)c(C)c1Oc1ccccc1 | inactive | 7
17 | CCOc1nn(-c2ccc(C3CC3)nn2)c(C)c1Oc1cccc(Cl)c1Cl | inactive | 7.4
18 | Cc1c(Oc2c(F)cccc2F)c(OC(C)C)nn1-c1cnc(C(F)(F)F)cn1 | inactive | 5.3
19 | CCOc1nn(-c2ccc(C3CC3)nn2)c(C)c1Oc1cc(Cl)ccc1Cl | inactive | 6.9
20 | COc1cnc(-n2nc(OC(C)C)c(Oc3c(F)cccc3F)c2C)cn1 | inactive | 6.1
21 | CCOc1nn(-c2ccc(C3CC3)cn2)c(C)c1Oc1ccccc1C(F)(F)F | inactive | 7.3
22 | CCOc1ccc(-n2nc(OC(C)C)c(Oc3c(F)cccc3F)c2C)nn1 | inactive | 
23 | Cc1cc(Br)cnc1-n1nc(OC(C)C)c(Oc2c(F)cccc2F)c1C | inactive | 5.9
24 | CCOc1nn(-c2ccc(C(C)(C)O)cn2)c(C)c1Cc1ccccc1 | inactive | 5.3

Row | Compound | growth inhibition (GI) (Plasmodium falciparum) | pMIC50 (Measles morbillivirus)
25 | CCOc1nn(-c2ccccn2)c(C)c1Cc1ccccc1 | inactive | <5
26 | CCc1ccc(-n2nc(OC(C)C)c(Oc3c(F)cccc3F)c2C)nc1 | inactive | 7.1
27 | CCOc1nn(-c2ccc(C3CC3)cn2)c(C)c1Oc1cc(Cl)ccc1Cl | inactive | 7.1
28 | CCc1ccc(-n2nc(OC(C)C)c(Oc3c(F)cccc3F)c2C)cn1 | inactive | 
29 | CCCc1cnc(-n2nc(OC(C)C)c(Oc3c(F)cccc3F)c2C)c(F)c1 | inactive | 6.7
30 | CCOc1nn(-c2ccc(C3CC3)nn2)c(C)c1Oc1ccccc1Br | inactive | 7.2
31 | CCOc1nn(-c2ncc(C3CC3)cc2C#N)c(C)c1Cc1ccccc1 | inactive | 6.6
32 | CCc1nnc(-n2nc(OC(C)C)c(Oc3c(F)cccc3F)c2C)nc1O | inactive | 7.6
33 | CCOc1nn(-c2ccc(OC)cn2)c(C)c1Cc1ccccc1 | inactive | 5.5
34 | Cc1c(Oc2cccc(F)c2F)c(OC(C)C)nn1-c1ccc(C2CC2)cn1 | inactive | 7.4
35 | Cc1c(Oc2cccc(F)c2F)c(OC(C)C)nn1-c1ccc(C2CC2)nn1 | inactive | 7.4
36 | CCOc1nn(-c2ccc(C(C)=O)cn2)c(C)c1Cc1ccccc1 | inactive | <5
37 | Cc1ccc(-n2nc(OC(C)C)c(Oc3c(F)cccc3F)c2C)cn1 | inactive | 
38 | CCOc1nn(-c2ccc(C3CC3)cn2)c(C)c1Oc1ccc(C(F)(F)F)cc1 | inactive | 5.3
39 | Cc1c(Oc2ccc(F)cc2)c(OC(C)C)nn1-c1ccc(C2CC2)nn1 | inactive | 5.6
40 | CCOc1nn(-c2cccc(C(F)(F)F)n2)c(C)c1Cc1ccccc1 | inactive | <5
41 | Cc1c(Oc2c(F)cccc2F)c(OC(C)C)nn1-c1ncc(C2CC2)cc1C#N | inactive | 8.1
42 | Cc1c(Oc2ccc(F)cc2)c(OC(C)C)nn1-c1ccc(C2CC2)cn1 [IPP/CNRS-A019] | inactive | 5.9
43 | CCOc1nn(-c2ccc(C(F)(F)F)cn2)c(C)c1Cc1ccccc1 | inactive | 5.5
44 | CCOc1nn(-c2ccc(C3CC3)cn2)c(C)c1Cc1ccccc1 | inactive | 7
45 | Cc1c(-c2ccc(-c3ccccc3F)cc2)nc2ccc(F)cc2c1C(=O)O | inactive | 
46 | CCn1cnc(-n2nc(OC(C)C)c(Oc3c(F)cccc3F)c2C)c1 | inactive | 
47 | Cc1c(Oc2c(F)cccc2F)c(OC(C)C)nn1-c1cnc(C2CC2)cn1 | inactive | 
48 | COc1ccc(-n2nc(OC(C)C)c(Oc3c(F)cccc3F)c2C)cn1 | inactive | 
